Experimental data from BindingDB's records for doi:10.1016/0006-2952(86)90769-0 (Wyeth Laboratories, 1986).

Key:
[1] = target: T1, Alpha-2C adrenergic receptor (Rattus norvegicus, UniProt P22086)
T1 sequence (P22086 whole entry): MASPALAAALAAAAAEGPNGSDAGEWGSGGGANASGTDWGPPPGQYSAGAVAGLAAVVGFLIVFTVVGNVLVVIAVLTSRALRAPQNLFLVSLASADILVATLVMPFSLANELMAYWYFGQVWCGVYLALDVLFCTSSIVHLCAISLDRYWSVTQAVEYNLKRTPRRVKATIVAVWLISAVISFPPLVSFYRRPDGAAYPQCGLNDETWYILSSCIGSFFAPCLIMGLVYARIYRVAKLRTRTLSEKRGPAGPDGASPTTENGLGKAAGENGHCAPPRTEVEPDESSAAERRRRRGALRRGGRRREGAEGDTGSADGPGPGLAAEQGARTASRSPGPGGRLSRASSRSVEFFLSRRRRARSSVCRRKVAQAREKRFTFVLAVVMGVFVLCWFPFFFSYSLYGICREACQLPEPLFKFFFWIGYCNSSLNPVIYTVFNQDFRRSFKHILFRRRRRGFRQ

[2] = target: T2, Muscarinic acetylcholine receptor M2 (Rattus norvegicus, UniProt P10980)
T2 sequence (P10980 whole entry): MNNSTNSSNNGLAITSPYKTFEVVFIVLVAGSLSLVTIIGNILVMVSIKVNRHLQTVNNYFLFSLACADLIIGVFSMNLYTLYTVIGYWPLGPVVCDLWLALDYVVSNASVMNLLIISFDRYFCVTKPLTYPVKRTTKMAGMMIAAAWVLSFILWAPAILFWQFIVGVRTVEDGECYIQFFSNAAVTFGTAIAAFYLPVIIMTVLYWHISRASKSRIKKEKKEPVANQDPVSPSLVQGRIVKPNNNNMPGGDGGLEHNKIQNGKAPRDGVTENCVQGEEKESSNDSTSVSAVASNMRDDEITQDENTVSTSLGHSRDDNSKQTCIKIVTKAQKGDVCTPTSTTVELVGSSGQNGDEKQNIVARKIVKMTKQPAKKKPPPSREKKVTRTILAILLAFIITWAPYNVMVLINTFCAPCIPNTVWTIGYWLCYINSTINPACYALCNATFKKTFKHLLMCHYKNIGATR

Histamine H1 receptor = Histamine H1 receptor (Rattus norvegicus, UniProt P31390)
Histamine H1 receptor, sequence (P31390 whole entry): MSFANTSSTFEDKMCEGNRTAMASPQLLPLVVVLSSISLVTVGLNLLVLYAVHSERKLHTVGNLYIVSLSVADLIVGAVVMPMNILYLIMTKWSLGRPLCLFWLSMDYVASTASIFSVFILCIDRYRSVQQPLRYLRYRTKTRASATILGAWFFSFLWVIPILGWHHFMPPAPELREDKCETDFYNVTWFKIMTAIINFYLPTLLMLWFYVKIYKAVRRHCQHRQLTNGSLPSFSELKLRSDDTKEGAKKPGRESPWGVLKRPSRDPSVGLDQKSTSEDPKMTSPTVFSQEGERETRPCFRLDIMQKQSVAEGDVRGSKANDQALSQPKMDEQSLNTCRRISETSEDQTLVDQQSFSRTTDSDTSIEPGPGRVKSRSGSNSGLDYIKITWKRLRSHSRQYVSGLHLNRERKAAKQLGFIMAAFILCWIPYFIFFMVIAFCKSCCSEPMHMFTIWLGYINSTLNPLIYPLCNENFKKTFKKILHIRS

Structure (SMILES) | Ki [1] | Ki [2] | Ki (Histamine H1 receptor)
CNCCCN1c2ccccc2CCc2ccccc21 [Desmethylimipramine] | > 10 µM | 0.05 µM | –
COc1ccc(C(CN(C)C)C2(O)CCCCC2)cc1 (stereo not given) [NSC_62923] | > 10 µM | > 10 µM | > 10 µM
